According to paper PMC10342010, “Djakonoviosides A, A1, A2, B1–B4 — Triterpene Monosulfated Tetra- and Pentaosides from the Sea Cucumber Cucumaria djakonovi: The First Finding of a Hemiketal Fragment in the Aglycones; Activity against Human Breast Cancer Cell Lines” (International Journal of Molecular Sciences, 2023):
Structures can show the parent of a compound that is named as a salt.

How the values were obtained:
[1] = Cytotoxic activity (MTT assay); type: cell-based, human; conditions: human
Method: (§1) After incubation, the glycosides with medium were replaced by 100 μL of fresh medium. Then, 10 μL of MTT (3-(4,5-dimethylthiazol-2-yl)-2,5-diphenyltetrazolium bromide) (Sigma-Aldrich, St. Louis, MO, USA) stock solution (5 mg/mL) was added to each well, followed by incubation of the microplate for 4 h. After this procedure, 100 μL of SDS-HCl solution (1 g SDS/10 mL d-H2O/17 μ[…] HCl) was added to each well and incubated for 18 h. The absorbance of the converted dye formazan was determined with a Multiskan FC microplate photometer (Thermo Fisher Scientific, Waltham, MA, USA) at 570 nm.

[2] = Cytotoxic activity (MTS assay); type: cell-based, human; conditions: human
Method: (§2) Then, the cells were incubated with 10 µL MTS ([3-(4,5-dimethylthiazol-2-yl)-5-(3-carboxymethoxyphenyl)-2-(4-sulfophenyl)-2H-tetrazolium) for 4 h, and the absorbance in each well was determined at 490/630 nm with a PHERA star FS plate reader (BMG Labtech, Ortenberg, Germany). The experiments were conducted in triplicate.

MDA-MB-231 cells [3] = experiment: Colony formation (clonogenic) assay; type: cell-based, human; conditions: Homo sapiens; MDA-MB-231, concentration 2 μM; read-out: Inhibition of colony growth, % of the control
Method: The influence of glycosides on the proliferation of MDA-MB-231 cells was analyzed by clonogenic assay. Briefly, MDA-MB-231 cells were cultured on 6-well plates at a density of 1 × 10^3 cells per well in control media (MEM media, 10% FBS, 10,000 U/mL of penicillin and 10,000 μg/mL of streptomycin) or in media supplemented with different concentrations of glycosides. Cells were incubated for one week at 37 °C with 5% CO2 until the cells in the control plates formed colonies that were visible to the eye and were of a substantial size (at least 50 cells per colony). For fixation and staining, the media were removed and the cells were washed twice with PBS. The colonies were fixed with methanol for 25 min, then washed with PBS and stained with 0.5% crystal violet solution for 25 min at room temperature. The plates were then washed with water and air dried.

MDA-MB-231 cells [4] = experiment: Wound scratch migration assay; type: cell-based, human
From the text: To analyze the influence of the tested compounds on tumor cell migration, MDA-MB-231 cells attached to the plate’s plastic bottom were separated by a silicone insert from special migration plates (Culture-insert 2 Well 24, ibiTreat); then, the insert was removed, leaving a gap of 500 ± 50 μm (according to the manufacturer’s data) between the cells. The cells were washed twice by PBS to remove cell debris and floating cells and loaded with a fluorescent probe, a (5,6)-carboxyfluorescein succinimidyl ester (CFDA SE) dye (LumiTrace CFDA SE kit, Lumiprobe, Moscow, Russia). The initial solution of CFDA SE at a concentration of 5 mM in DMSO was dissolved in PBS to prepare a 10 μM solution and was added to the cells for 5 min at 37 °C; then, the cells were washed twice with PBS, and fresh culture medium was added. After that, the cells were treated with various concentrations of glycosides and left for 8 and 24 h. Cells treated with culture medium only were used as control. Cell migration into the wound area was then observed under a fluorescence microscope (MIB-2-FL, LOMO, Saint Peterburg, Russia) with an objective ×10 magnification.

human erythrocytes = experiment: Hemolytic activity; type: cell-based; conditions: for ED50, Erythrocytes: 1 h incubation at 37 °C, 50% hemolysis
Method: Erythrocytes were obtained from human blood (AB(IV) Rh+) by centrifugation with phosphate-buffered saline (PBS) (pH 7.4) at 4 °C for 5 min by 450 g on a LABOFUGE 400R centrifuge (Heraeus, Hanau, Germany) three times. Then, the erythrocytes residue was resuspended in ice cold phosphate saline buffer (pH 7.4) to a final optical density of 1.5 at 700 nm and kept on ice. For the hemolytic assay, 180 µL of erythrocyte suspension was mixed with 20 µL of test compound solution, as well as control, chitonoidoside L [33], in V-bottom 96-well plates. After 1 h of incubation at 37 °C, the plates were exposed to centrifugation for 10 min at 900 g in a laboratory LMC-3000 centrifuge (Biosan, Riga, Latvia). Then, 100 µL of supernatant was carefully decanted and transferred into new flat plates. The values of the lysis of the erythrocytes were found by measuring the concentration of hemoglobin in the supernatant with a Multiskan FC microplate photometer (Thermo Fisher Scientific, Waltham, MA, USA); λ = 570 nm. […] All the experiments were carried out in triple repetitions; p < 0.01.

cancer cell lines = experiment: Cytotoxic action against cancer cell lines (summary in words); type: cell-based, human; conditions: cancer cell lines HL-60, MCF-7, T-47D, MDA-MB-231
Method: All the substances were tested in concentrations from 0.1 µM to 50 µM. Cisplatin was used as positive control. The cell suspension (180 µL) and solutions (20 µL) of tested glycosides in different concentrations were injected in wells of 96-well plates (MCF-7, T-47D, MDA-MB-231, and HEK293—7 × 10^3 cells/well) and incubated at 37 °C for 24 h in an atmosphere with 5% CO2. Glycosides 1 and 2, cucumarioside A0-1, and okhotoside A1-1 at concentrations of 1.25–10.0 μM were incubated with MDA-MB-231 cells at 37 °C for 24, 48, and 72 h in an atmosphere with 5% CO2. After incubation, the glycosides with medium were replaced by 100 µL of fresh medium. Then, 10 µL of MTT (3-(4,5-dimethylthiazol-2-yl)-2,5-diphenyltetrazolium bromide) (Sigma-Aldrich, St. Louis, MO, USA) stock solution (5 mg/mL) was added to each well, followed by incubation of the microplate for 4 h. After this procedure, 100 µL of SDS-HCl solution (1 g SDS/10 mL d-H2O/17 µL 6 N HCl) was added to each well and incubated for 18 h. The absorbance of the converted dye formazan was determined with a Multiskan FC microplate photometer (Thermo Fisher Scientific, Waltham, MA, USA) at 570 nm. […] The experiments were conducted in triplicate; p < 0.05.
as §2, with “triplicate. The results were presented as the percentage of inhibition that produced a reduction in absorbance after tested glycosides treatment compared to the nontreated cells (negative control); p < 0.01.” for “triplicate.”

[5] = Cytotoxic activity (MTT assay); type: cell-based, human; conditions: human; remark: listed apart in the source
Method: as §1

[6] = Cytotoxic activity (MTT assay); type: cell-based, human; conditions: human; remark: listed apart in the source
Method: as §1

[7] = Cytotoxic activity (MTT assay); type: cell-based, human; conditions: human; remark: listed apart in the source
Method: as §1

Compound: CO[C@@H]1[C@@H](O)[C@H](O[C@@H]2[C@@H](O)[C@H](O[C@H]3[C@H](O)[C@@H](O)[C@H](O[C@H]4[C@H](O[C@H]5CC[C@]6(C)[C@@H]7CCC89C(=O)O[C@@](C)([C@H](O)C(=O)CC(C)C)[C@H]8[C@@H](OC(C)=O)C[C@@]9(C)C7=CC[C@H]6C5(C)C)OC[C@@H](OS(=O)(=O)O)[C@@H]4O)O[C@@H]3C)OC[C@H]2O)O[C@H](CO)[C@H]1O (stereo partly drawn) [djakonovioside A1 (2), 3β-O-[3-O-methyl-β-D-glucopyranosyl-(1→3)-β-D-xylopyranosyl-(1→4)-β-D-quinovopyranosyl-(1→2)-4-O-sodium sulfate-β-D-xylopyranosyl}-16β-acetoxy,22S-hydroxy,23-oxo-holost-7-en]
- EC50 at 48 h [1]: 7.33 µM
- EC50 at 72 h [1]: 6.25 µM
- IC50 at 24 h [2]: 4.44 ± 0.37 µM
- inhibition at 2 µM (MDA-MB-231 cells [3]): 19.2 ± 0.25%
- inhibition at 2 µM (MDA-MB-231 cells [4]; Homo sapiens, MDA-MB-231, 2 μM, 24 h incubation, read-out: Inhibition of migration as compared to control): 79.5 ± 9.12%
- ED50, Erythrocytes (human erythrocytes): 2.26 ± 0.25 µM

Compound: COC1C(O)C(CO)OC(OC2C(O)COC(OC3C(C)OC(OC4C(OC5CCC6(C)C7CCC89C(=O)OC%10(C)C(O)C(O)(CC(C)C)OC(CC8(C)C7=CCC6C5(C)C)C%109)OCC(OS(=O)(=O)O)C4O)C(O)C3O)C2O)C1O [djakonovioside A2 (3), 3β-O-[3-O-methyl-β-D-glucopyranosyl-(1→3)-β-D-xylopyranosyl-(1→4)-β-D-quinovopyranosyl-(1→2)-4-O-sodium sulfate-β-D-xylopyranosyl}-22S-hydroxyholost-7-en-23R,16β-hemiketal]
- Activity against cancer cells (in words) (cancer cell lines): inactive
- IC50 at 24 h [1]: > 50 µM
- IC50 at 24 h [5]: > 50 µM
- IC50 at 24 h [6]: > 50 µM
- IC50 at 24 h [2]: > 50 µM
- IC50 at 24 h [7]: > 50 µM
- Hemolytic action (in words) (human erythrocytes): moderately hemolytic
- ED50, Erythrocytes (human erythrocytes): 30.86 ± 0.97 µM

Compound: CO[C@@H]1[C@@H](O)[C@H](O[C@@H]2[C@@H](O)[C@H](O[C@H]3[C@H](O)[C@@H](O)[C@H](O[C@H]4[C@H](O[C@H]5CC[C@]6(C)[C@@H]7CCC89C(=O)O[C@@](C)(C[C@@H](O)CC(C)C)[C@H]8[C@@H](OC(C)=O)C[C@@]9(C)C7=CC[C@H]6C5(C)C)OC[C@@H](OS(=O)(=O)O)[C@@H]4O)O[C@@H]3C)OC[C@H]2O)O[C@H](CO)[C@H]1O (stereo partly drawn) [djakonovioside A (1), 3β-O-[3-O-methyl-β-D-glucopyranosyl-(1→3)-β-D-xylopyranosyl-(1→4)-β-D-quinovopyranosyl-(1→2)-4-O-sodium sulfate-β-D-xylopyranosyl}-16β-acetoxy,23S-hydroxyholost-7-en]
- EC50 at 48 h [1]: 4.45 µM
- EC50 at 72 h [1]: 3.77 µM
- IC50 at 24 h [2]: 6.05 ± 0.17 µM
- inhibition at 2 µM (MDA-MB-231 cells [3]): 41.4 ± 3.16%
- Blockage of migration in relation to control (MDA-MB-231 cells [4]; MDA-MB-231, 1 μM, 24 h): 79.92 ± 0.27%
- ED50, Erythrocytes (human erythrocytes): 2.46 ± 0.22 µM

Compound: CO[C@@H]1[C@@H](O)[C@H](O[C@@H]2[C@@H](O)[C@H](O[C@H]3[C@H](O)[C@@H](O[C@@H]4OC[C@@H](O)[C@H](O)[C@H]4O)[C@H](O[C@H]4[C@H](O[C@H]5CC[C@]6(C)[C@@H]7CCC89C(=O)O[C@@](C)([C@H](O)C(=O)CC(C)C)[C@H]8[C@@H](OC(C)=O)C[C@@]9(C)C7=CC[C@H]6C5(C)C)OC[C@@H](OS(=O)(=O)O)[C@@H]4O)O[C@@H]3C)OC[C@H]2O)O[C@H](CO)[C@H]1O (stereo partly drawn) [djakonovioside B1 (4), 3β-O-{3-O-methyl-β-D-glucopyranosyl-(1→3)-β-D-xylopyranosyl-(1→4)-[(1→2)-β-D-xylopyranosyl]-β-D-quinovopyranosyl-(1→2)-4-O-sodium sulfate-β-D-xylopyranosyl}-16β-acetoxy,22S-hydroxy,23-oxo-holost-7-en]
- IC50 at 24 h [2]: 20.1 ± 0.8 µM
- ED50, Erythrocytes (human erythrocytes): 6.03 ± 0.47 µM

Compound: COC1C(O)C(CO)OC(OC2C(O)COC(OC3C(C)OC(OC4C(OC5CCC6(C)C7CCC89C(=O)OC%10(C)CC(O)(CC(C)C)OC(CC8(C)C7=CCC6C5(C)C)C%109)OCC(OS(=O)(=O)O)C4O)C(OC4OCC(O)C(O)C4O)C3O)C2O)C1O [djakonovioside B2 (5), 3β-O-{3-O-methyl-β-D-glucopyranosyl-(1→3)-β-D-xylopyranosyl-(1→4)-[(1→2)-β-D-xylopyranosyl]-β-D-quinovopyranosyl-(1→2)-4-O-sodium sulfate-β-D-xylopyranosyl}-holost-7-en-23R,16β-hemiketal]
- Activity against cancer cells (in words) (cancer cell lines): inactive
- IC50 at 24 h [2]: 38.6 ± 1.05 µM
- Hemolytic action (in words) (human erythrocytes): moderately hemolytic
- ED50, Erythrocytes (human erythrocytes): 16.34 ± 0.34 µM

Compound: COC1C(O)C(CO)OC(OC2C(O)COC(OC3C(C)OC(OC4C(OC5CCC6(C)C7CCC89C(=O)OC%10(C)C(O)C(O)(CC(C)C)OC(CC8(C)C7=CCC6C5(C)C)C%109)OCC(OS(=O)(=O)O)C4O)C(OC4OCC(O)C(O)C4O)C3O)C2O)C1O [djakonovioside B4 (7), 3β-O-{3-O-methyl-β-D-glucopyranosyl-(1→3)-β-D-xylopyranosyl-(1→4)-[(1→2)-β-D-xylopyranosyl]-β-D-quinovopyranosyl-(1→2)-4-O-sodium sulfate-β-D-xylopyranosyl}-22S-hydroxyholost-7-en-23R,16β-hemiketal]
- Activity against cancer cells (in words) (cancer cell lines): inactive
- IC50 at 24 h [1]: > 50 µM
- IC50 at 24 h [5]: > 50 µM
- IC50 at 24 h [6]: > 50 µM
- IC50 at 24 h [2]: > 50 µM
- IC50 at 24 h [7]: > 50 µM
- Hemolytic action (in words) (human erythrocytes): moderately hemolytic
- ED50, Erythrocytes (human erythrocytes): 17.07 ± 1.15 µM
